Experiments:
MOLT-4 = assay: NCI primary anti-cancer assay (SRB), MOLT-4; assay type: cell-based; conditions: Homo sapiens; 10^−5M; Leukemia MOLT-4; read-out: Growth Inhibition %
Procedure: (§1) Evaluation of anti-cancer activities on pyrimido[4,5-d]pyrimidine derivatives were performed at the National Cancer Institute (NCI) USA. First the newly synthesized compounds have been evaluated in primary anti-cancer assay at 10^−5M concentration against 60 human tumor cell lines then the active compounds were tested at 5 different concentrations against the same 60 human tumor cell lines. The biological data for the newly synthesized compounds are compiled in table 2
(§2) The cytotoxic activity was measured in vitro for the newly synthesized compounds using the SulfoRhodamine-B stain (SRB) assay using the method of Skehan. Cells were plated in 96-multiwell microtiter plate (10^4 cells/well) for 24 h before treatment with the compound(s) to allow attachment of cell to the wall of the plate. Tested compounds were dissolved in DMSO and diluted with saline to the appropriate volume. Triplicate wells were prepared for each individual dose. Monolayer cells were incubated with the compound(s) for 48 h at 37 °C and in atmosphere of 5% CO2. After 48 h, cells were fixed, washed, and stained for 30 min with 0.4% (wt/vol) with SRB dissolved in 1% acetic acid. Unbound dye was removed by four washes with 1% acetic acid, and attached stain was recovered with Tris-EDTA buffer. Color intensity was measured in an ELISA reader. The relation between surviving fraction and drug concentration is plotted to get the survival curve for tumor cell line after the specified time.

HL-60(TB) = assay: NCI primary anti-cancer assay (SRB), HL-60(TB); assay type: cell-based; conditions: Homo sapiens; 10^−5M; Leukemia HL-60(TB); read-out: Growth Inhibition %
Procedure: as §1, §2

A549/ATCC = assay: NCI primary anti-cancer assay (SRB), A549/ATCC; assay type: cell-based; conditions: Homo sapiens; 10^−5M; Non-Small Cell Lung Cancer A549/ATCC; read-out: Growth Inhibition %
Procedure: as §1, §2

UACC-257 = assay: NCI primary anti-cancer assay (SRB), UACC-257; assay type: cell-based; conditions: Homo sapiens; 10^−5M; Melanoma UACC-257; read-out: Growth Inhibition %
Procedure: as §1, §2

RPMI-8226 = assay: NCI primary anti-cancer assay (SRB), RPMI-8226; assay type: cell-based; conditions: Homo sapiens; 10^−5M; Leukemia RPMI-8226; read-out: Growth Inhibition %
Procedure: as §1, §2

K-562 = assay: NCI primary anti-cancer assay (SRB), K-562; assay type: cell-based; conditions: Homo sapiens, K562; 10^−5M; Leukemia K-562; read-out: Growth Inhibition %
Procedure: as §1, §2

IGROV1 = assay: NCI primary anti-cancer assay (SRB), IGROV1; assay type: cell-based; conditions: Homo sapiens, IGROV-1; 10^−5M; Ovarian Cancer IGROV1; read-out: Growth Inhibition %
Procedure: as §1, §2

T-47D = assay: NCI primary anti-cancer assay (SRB), T-47D; assay type: cell-based; conditions: Homo sapiens, T47D; 10^−5M; Breast Cancer T-47D; read-out: Growth Inhibition %
Procedure: as §1, §2

CDK2/CyclinA = molecular target: T1, CDK2/CyclinA (Homo sapiens, UniProt P24941); assay: CDK2/cyclinA enzymatic activity inhibition assay (32P-ATP, histone H1); assay type: biochemical; conditions: mean of at least two independent experiments
T1 construct: hexa-histidine (N); made in house; host or cells: sf21 insect cells (baculovirus)

[1] = system: 60 human tumor cell lines; assay: NCI primary anti-cancer assay, summary over tumor cell lines; assay type: cell-based; conditions: 10^−5M, Non-small cell lung cancer, Ovarian cancer, Leukemia and Melanoma lines / different tumor cell lines, read-out: growth inhibitions (range over cell lines)
Procedure: as §1, §2

UO-31 = assay: NCI primary anti-cancer assay (SRB), UO-31; assay type: cell-based; conditions: Homo sapiens; 10^−5M; Renal Cancer UO-31; read-out: Growth Inhibition %
Procedure: as §1, §2

[2] = molecular target: T2, human EGFR tyrosine kinase domain (Homo sapiens, UniProt P00533); assay: EGFR tyrosine kinase inhibition assay; assay type: biochemical; conditions: mean of at least two independent experiments
T2 construct: C-terminal human EGFR tyrosine kinase domain

SNB-75 = assay: NCI primary anti-cancer assay (SRB), SNB-75; assay type: cell-based; conditions: Homo sapiens; 10^−5M; CNS Cancer SNB-75; read-out: Growth Inhibition %
Procedure: as §1, §2

CDK4/CyclinD = CDK4/CyclinD (Homo sapiens, UniProt P11802); assay: CDK4/CyclinD inhibition assay; assay type: biochemical; conditions: mean of at least two independent experiments
SF-539 = assay: NCI primary anti-cancer assay (SRB), SF-539; assay type: cell-based; conditions: Homo sapiens; 10^−5M; CNS Cancer SF-539; read-out: Growth Inhibition %
Procedure: as §1, §2

RXF 393 = assay: NCI primary anti-cancer assay (SRB), RXF 393; assay type: cell-based, human; conditions: Renal Cancer RXF 393; for inhibition at 10 µM: Homo sapiens, RXF 393, 10^−5M, read-out: Growth Inhibition %
Procedure: as §1, §2

MDA-MB-231/ATCC = assay: NCI primary anti-cancer assay (SRB), MDA-MB-231/ATCC; assay type: cell-based; conditions: Homo sapiens; 10^−5M; Breast Cancer MDA-MB-231/ATCC; read-out: Growth Inhibition %
Procedure: as §1, §2

OVCAR-8 = assay: NCI primary anti-cancer assay (SRB), OVCAR-8; assay type: cell-based; conditions: Homo sapiens; 10^−5M; Ovarian Cancer OVCAR-8; read-out: Growth Inhibition %
Procedure: as §1, §2

HOP-92 = assay: NCI primary anti-cancer assay (SRB), HOP-92; assay type: cell-based; conditions: Homo sapiens; 10^−5M; Non-Small Cell Lung Cancer HOP-92; read-out: Growth Inhibition %
Procedure: as §1, §2

HS 578T = assay: NCI primary anti-cancer assay (SRB), HS 578T; assay type: cell-based; conditions: Homo sapiens; 10^−5M; Breast Cancer HS 578T; read-out: Growth Inhibition %
Procedure: as §1, §2

BT-549 = assay: NCI primary anti-cancer assay (SRB), BT-549; assay type: cell-based; conditions: Homo sapiens; 10^−5M; Breast Cancer BT-549; read-out: Growth Inhibition %
Procedure: as §1
as §2, with “The relation between surviving fraction and drug concentration is plotted to get the survival curve for tumor cell line after the specified time.” left out

MCF7 = assay: NCI primary anti-cancer assay (SRB), MCF7; assay type: cell-based; conditions: Homo sapiens; 10^−5M; Breast Cancer MCF7; read-out: Growth Inhibition %
Procedure: as §1
as §2, with “The relation between surviving fraction and drug concentration is plotted to get the survival curve for tumor cell line after the specified time.” left out

T2 sequence (P00533 712-979 limits assumed): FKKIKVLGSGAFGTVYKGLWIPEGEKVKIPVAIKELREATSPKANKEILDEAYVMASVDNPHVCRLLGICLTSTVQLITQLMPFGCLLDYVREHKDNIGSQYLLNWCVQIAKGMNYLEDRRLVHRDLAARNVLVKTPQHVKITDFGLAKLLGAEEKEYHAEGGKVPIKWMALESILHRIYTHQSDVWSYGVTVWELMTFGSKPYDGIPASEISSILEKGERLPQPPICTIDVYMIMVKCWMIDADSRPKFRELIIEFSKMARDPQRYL
CDK4/CyclinD, sequence (P11802 whole entry, species assumed): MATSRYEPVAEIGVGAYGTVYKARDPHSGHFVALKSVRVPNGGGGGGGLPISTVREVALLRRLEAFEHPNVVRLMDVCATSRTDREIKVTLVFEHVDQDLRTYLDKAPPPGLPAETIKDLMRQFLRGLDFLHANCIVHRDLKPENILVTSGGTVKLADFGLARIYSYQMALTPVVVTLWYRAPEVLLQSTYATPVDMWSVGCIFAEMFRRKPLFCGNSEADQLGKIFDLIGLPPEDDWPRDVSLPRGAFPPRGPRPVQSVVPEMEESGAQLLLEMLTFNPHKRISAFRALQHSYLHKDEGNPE
CDK4/CyclinD, sequence (P24385 whole entry partner, species assumed): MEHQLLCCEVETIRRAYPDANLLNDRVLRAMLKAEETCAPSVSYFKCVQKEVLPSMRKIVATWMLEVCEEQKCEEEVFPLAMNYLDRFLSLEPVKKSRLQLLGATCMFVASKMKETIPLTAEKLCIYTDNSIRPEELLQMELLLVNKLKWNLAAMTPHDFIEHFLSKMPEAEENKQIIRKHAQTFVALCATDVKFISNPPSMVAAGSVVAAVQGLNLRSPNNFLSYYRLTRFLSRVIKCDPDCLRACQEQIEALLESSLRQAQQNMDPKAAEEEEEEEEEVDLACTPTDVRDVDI

Row | Compound | inhibition at 10 µM (MOLT-4) [%] | inhibition at 10 µM (HL-60(TB)) [%] | inhibition at 10 µM (A549/ATCC) [%] | inhibition at 10 µM (UACC-257) [%] | inhibition at 10 µM (RPMI-8226) [%] | inhibition at 10 µM (K-562) [%] | inhibition at 10 µM (IGROV1) [%] | inhibition at 10 µM (T-47D) [%] | IC50 (CDK2/CyclinA) [µM] | inhibition at 10 µM (UO-31) [%] | IC50 [2] [µM] | inhibition at 10 µM (SNB-75) [%] | IC50 (CDK4/CyclinD) [µM] | IC50 CDK4/CyclinD (CDK4/CyclinD) | melting point [°C] | inhibition at 10 µM (RXF 393) [%] | inhibition at 10 µM (MDA-MB-231/ATCC) [%] | inhibition at 10 µM (OVCAR-8) [%] | inhibition at 10 µM (HOP-92) [%] | other results
1 | Cc1cc(C)nc(NS(=O)(=O)c2ccc(Nc3nc(C)c4c(=O)[nH]c(NCc5ccccc5)nc4n3)cc2)n1 [Compound 7c, 4-{[7-(Benzylamino)-4-methyl-5-oxo-5,6-dihydropyrimido[4,5-d]pyrimidin-2-yl]amino}-N-(4,6-dimethylpyrimidin-2-yl)benzenesulfonamide] | 22.6 | 23.1 | 64.4 | 71.4 | 50.7 | 32.8 | 61.7 | 23.4 | 2.6 | 39.5 | 6.6 | 43.1 | > 10 | no activity |  |  |  |  |  | inhibition at 10 µM [1]: 50 to 70%
2 | Cc1nc(Nc2ccc(NC(=S)Nc3ccccc3)cc2)nc2nc(SCc3ccccc3)[nH]c(=O)c12 [Compound 6c, 1-(4-{[7-(Benzylsulfanyl)-4-methyl-5-oxo-5,6-dihydropyrimido[4,5-d]pyrimidin-2-yl]amino}-phenyl)-3-phenylthiourea] |  | 24 | 42.1 | 25.2 | 33 | 27.9 | 34.3 |  | 1.5 |  | > 10 |  | 3.11 |  | > 300 | 124 | 23.1 |  |  | inhibition at 10 µM (SF-539): 36.7%; Growth Inhibition % (RXF 393; 10^−5M): 124.01%
3 | Cc1cc(C)nc(NS(=O)(=O)c2ccc(Nc3nc(C)c4c(=O)[nH]c(Nc5cccc(Cl)c5)nc4n3)cc2)n1 [Compound 7f, 4-({7-[(3-Chlorophenyl)amino]-4-methyl-5-oxo-5,6-dihydropyrimido[4,5-d]pyrimidin-2-yl}amino)-N-(4,6-dimethylpyrimidin-2-yl)benzenesulfonamide] |  | 21.6 | 52 | 57.9 | 58.9 | 26.5 | 54.4 |  | 0.05 | 40.3 | > 10 | 28.5 | 0.86 |  | > 300 |  | 30.4 | 21.8 | 34.8 | inhibition at 10 µM [1]: 50 to 70%
4 | Cc1nc(Nc2ccc(NC(=S)Nc3ccccc3)cc2)nc2nc(Nc3cccc(Cl)c3)[nH]c(=O)c12 [Compound 7e, 1-[4-({7-[(3-Chlorophenyl)amino]-4-methyl-5-oxo-5,6-dihydropyrimido[4,5-d]pyrimidin-2-yl}amino)phenyl]-3-phenylthiourea] | 35 | 42.9 |  |  | 42.8 | 28.2 |  |  | 0.25 |  | 4.9 |  | 2.55 |  |  | 113 |  |  | 39.6 | inhibition at 10 µM (HS 578T): 32.9%; inhibition at 10 µM (SF-539): 23.5%
5 | Cc1cc(C)nc(NS(=O)(=O)c2ccc(Nc3nc(-c4ccc(O)cc4O)c4c(=O)[nH]c(SCc5ccccc5)nc4n3)cc2)n1 [Compound 6b, 4-{[7-(Benzylsulfanyl)-4-(2,4-dihydroxyphenyl)-5-oxo-5,6-dihydropyrimido[4,5-d]pyrimidin-2-yl]amino}-N-(4,6-dimethylpyrimidin-2-yl)benzenesulfonamide] |  |  |  |  |  | 20.1 | 30.7 |  | 2.8 |  | 5.5 |  | 2.14 |  | > 300 |  |  | 38.7 |  | inhibition at 10 µM (BT-549): 29.1%
6 | O=c1[nH]c(Nc2cccc(Cl)c2)nc2nc(Nc3ccc(NC(=S)Nc4ccccc4)cc3)nc(-c3ccc(O)cc3O)c12 [Compound 7d, 1-[4-({7-[(3-Chlorophenyl)amino]-4-(2,4-dihydroxyphenyl)-5-oxo-5,6-dihydro-pyrimido[4,5-d]pyrimidin-2-yl}amino)phenyl]-3-phenylthiourea] |  |  | 44.7 | 79.5 | 30.4 |  | 39.7 |  | > 10 | 30.7 | > 10 |  | 6.88 | very poor activity | > 300 |  | 21.4 | 26.8 |  | 
7 | O=c1[nH]c(SCc2ccccc2)nc2nc(Nc3ccc(NC(=S)Nc4ccccc4)cc3)nc(-c3ccc(O)cc3O)c12 [Compound 6a, 1-(4-{[7-(Benzylsulfanyl)-4-(2,4-dihydroxyphenyl)-5-oxo-5,6-dihydro-pyrimido[4,5-d]pyrimidin-2-yl]amino}phenyl)-3-phenylthiourea] |  |  |  |  |  |  |  | 26.9 | 5 |  | 9.3 |  | > 10 | no activity | > 300 | 33.8 |  |  | 103 | 
8 | Cc1cc(C)nc(NS(=O)(=O)c2ccc(Nc3nc(C)c4c(=O)[nH]c(Nc5ccc(S(=O)(=O)O)cc5)nc4n3)cc2)n1 [Compound 7i, 4-{[7-({4-[(4,6-Dimethylpyrimidin-2-yl)sulfamoyl]phenyl}amino)-5-methyl-4-oxo-3,4-dihydro-pyrimido[4,5-d]pyrimidin-2-yl]amino}benzenesulfonic acid] |  |  | 39.1 |  |  |  |  | 30.1 | > 10 | 30.6 | 8.1 | 23.2 | > 10 | no activity | > 300 |  |  |  |  | inhibition at 10 µM (HS 578T): 26.2%
9 | Cc1cc(C)nc(NS(=O)(=O)c2ccc(Nc3nc(C)c4c(=O)[nH]c(SCc5ccccc5)nc4n3)cc2)n1 [Compound 6d, 4-{[7-(Benzylsulfanyl)-4-methyl-5-oxo-5,6-dihydropyrimido[4,5-d]pyrimidin-2-yl]amino}-N-(4,6-dimethylpyrimidin-2-yl)benzenesulfonamide] | 43.4 |  | 21.2 |  |  |  |  |  | 2.5 |  | 7.8 |  | 0.66 |  | > 300 |  |  |  | 27 | 
10 | O=c1[nH]c(Nc2ccc(S(=O)(=O)O)cc2)nc2nc(Nc3ccc(NC(=S)Nc4ccccc4)cc3)nc(-c3ccc(O)cc3O)c12 [Compound 7g, 4-{[5-(2,4-Dihydroxyphenyl)-4-oxo-7-({4-[(phenylcarbamothioyl)amino]phenyl}amino)-3,4-dihydropyrimido[4,5-d]pyrimidin-2-yl]amino}benzenesulfonic acid] |  |  |  | 32.7 |  | 20.1 |  |  | 6.5 |  | 7.3 |  | 5.21 | very poor activity | > 300 |  |  |  | 29.1 | inhibition at 10 µM (MCF7): 33.3%
